The values below come from US11370794B2, “Toll-like receptor antagonist compounds and methods of use” (Dynavax Technologies Corporation, priority 2016, dated 2022).

What is called IC50 is the concentration needed to halve the response being measured.

The target in one assay is T1, human TLR8 (Homo sapiens, UniProt Q9NR97).
T1 construct: endogenous in cells; host or cells: primary human monocytes (CD14 microbeads) from buffy coats of healthy donors
T1 sequence (Q9NR97 27-1041): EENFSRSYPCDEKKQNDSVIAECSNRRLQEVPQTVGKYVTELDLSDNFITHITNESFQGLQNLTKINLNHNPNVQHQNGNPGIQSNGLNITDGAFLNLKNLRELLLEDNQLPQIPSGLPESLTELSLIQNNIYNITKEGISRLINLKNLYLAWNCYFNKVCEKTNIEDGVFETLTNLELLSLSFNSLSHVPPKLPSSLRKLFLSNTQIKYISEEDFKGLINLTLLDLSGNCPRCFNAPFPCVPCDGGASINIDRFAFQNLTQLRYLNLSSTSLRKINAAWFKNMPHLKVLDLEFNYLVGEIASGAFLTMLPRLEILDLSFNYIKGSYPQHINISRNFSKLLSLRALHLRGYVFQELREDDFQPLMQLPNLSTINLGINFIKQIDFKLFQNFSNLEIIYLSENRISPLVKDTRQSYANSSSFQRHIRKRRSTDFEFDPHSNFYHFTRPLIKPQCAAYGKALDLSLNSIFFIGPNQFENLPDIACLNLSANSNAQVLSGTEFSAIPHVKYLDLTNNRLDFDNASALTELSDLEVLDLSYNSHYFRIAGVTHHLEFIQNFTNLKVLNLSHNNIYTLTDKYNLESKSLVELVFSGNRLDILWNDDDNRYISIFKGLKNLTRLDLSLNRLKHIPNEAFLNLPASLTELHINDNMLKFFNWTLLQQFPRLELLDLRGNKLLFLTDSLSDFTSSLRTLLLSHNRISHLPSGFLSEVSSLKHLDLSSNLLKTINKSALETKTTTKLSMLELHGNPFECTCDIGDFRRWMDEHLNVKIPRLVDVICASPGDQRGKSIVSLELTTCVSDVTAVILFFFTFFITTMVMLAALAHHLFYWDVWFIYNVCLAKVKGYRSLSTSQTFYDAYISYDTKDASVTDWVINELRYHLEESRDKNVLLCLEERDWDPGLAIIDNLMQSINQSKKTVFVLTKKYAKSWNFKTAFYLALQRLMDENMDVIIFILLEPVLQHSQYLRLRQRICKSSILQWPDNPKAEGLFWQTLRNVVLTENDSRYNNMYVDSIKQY
Put plainly: Inhibition of human TLR8 in human monocytes (TNF-alpha / IL-1 beta ELISA). The settings on record: human monocytes, agonist ORN8L 100 μg/mL, 24 hours. The format is cell-based. An excerpt:
Example B2—Inhibition of Human TLR8 in Human Monocytes
When placed in cell culture, engagement of TLR8 with an agonist leads to expression and release of cytokines into the media.
Buffy coats from anonymized, healthy human donors. CD14 microbeads (Milteny Cat. No. 130-050-201). TLR8 agonist, (5′-M2UGCUGCUUGUG-/glycerol/-GUGUUCGUCGUM2-5′ with M2=C6-linker, ORN8L, RNA oligonucleotide (Chem Genes Corp.). Human TNF-alpha ELISA kit (Mabtech Cat. No. 3510-1H-20). Human interleukin (IL)-1 beta ELISA kit (Mabtech Cat. No. 3415-1H-20).
Following isolation of monocytes from buffy coats, human monocytes were plated into 96 well plates at approximately 200,000 cells per well. Test compounds were serially diluted and added to the plates. Immediately after adding test compounds, the TLR8 agonist (ORN8L, RNA oligonucleotide) was added to a final concentration of 100 μg/mL. Cells were incubated for 24 hours at 37° C. A portion of the media supernatant was analyzed for the presence of TNF-alpha and/or IL-1 beta using ELISA kits. The amount of TNF-alpha or IL-1 beta produced is a reflection of the amount of TLR8-dependent receptor activity. The IC50 values (the concentration at which 50% of the TLR8-dependent receptor activity is reduced) were calculated based upon the TLR8-dependent receptor activity over a range of different test compound concentrations.
For orientation: An ELISA detects its analyte on a solid surface through an enzyme-linked reagent.

For a further assay, the target named is T2, human TLR9 (Homo sapiens, UniProt Q9NR96).
T2 construct: endogenous in cells; host or cells: primary human B cells (CD19 microbeads) from buffy coats of healthy donors
T2 sequence (Q9NR96 26-1032): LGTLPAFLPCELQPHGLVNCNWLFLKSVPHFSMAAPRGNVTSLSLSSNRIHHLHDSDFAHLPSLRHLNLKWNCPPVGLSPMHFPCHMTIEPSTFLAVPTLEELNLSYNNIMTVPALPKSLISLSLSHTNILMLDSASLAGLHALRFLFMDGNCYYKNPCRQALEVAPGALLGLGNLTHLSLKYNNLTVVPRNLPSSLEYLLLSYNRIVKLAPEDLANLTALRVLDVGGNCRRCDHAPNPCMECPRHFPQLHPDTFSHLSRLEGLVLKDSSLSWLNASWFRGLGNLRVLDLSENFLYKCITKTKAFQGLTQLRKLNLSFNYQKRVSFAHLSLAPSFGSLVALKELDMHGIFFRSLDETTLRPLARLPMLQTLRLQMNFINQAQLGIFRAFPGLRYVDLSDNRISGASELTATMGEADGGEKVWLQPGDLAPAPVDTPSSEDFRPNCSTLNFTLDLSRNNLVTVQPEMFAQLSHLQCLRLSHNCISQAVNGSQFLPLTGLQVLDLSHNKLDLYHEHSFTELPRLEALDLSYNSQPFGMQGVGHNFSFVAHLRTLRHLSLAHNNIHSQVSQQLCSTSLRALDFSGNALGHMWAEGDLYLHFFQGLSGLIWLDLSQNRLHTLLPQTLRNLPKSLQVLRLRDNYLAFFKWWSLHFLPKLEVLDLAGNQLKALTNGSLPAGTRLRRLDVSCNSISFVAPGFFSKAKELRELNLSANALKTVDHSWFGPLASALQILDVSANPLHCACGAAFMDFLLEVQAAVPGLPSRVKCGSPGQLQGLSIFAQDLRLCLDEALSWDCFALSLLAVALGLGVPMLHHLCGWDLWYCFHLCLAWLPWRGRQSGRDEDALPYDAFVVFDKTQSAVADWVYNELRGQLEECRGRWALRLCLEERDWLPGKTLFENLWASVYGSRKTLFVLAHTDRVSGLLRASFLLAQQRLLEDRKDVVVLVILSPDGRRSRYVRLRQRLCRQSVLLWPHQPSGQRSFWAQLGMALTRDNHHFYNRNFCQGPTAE
Nature of the assay: Inhibition of human TLR9 in human B cells (IL-6 ELISA). The settings on record: for IC50: human B cells, agonist 1018 ISS 1 μM, IL-6 readout, 48 hours, range about 0.01 to 10 μM, read-out: Human TLR9 IC50; for inhibits TLR9-dependent responses (in words): summary statement of the description. The format is cell-based. On the procedure: Example B3—Inhibition of Human TLR9 in Human B Cells
When placed in cell culture, engagement of TLR9 with an agonist leads to expression and release of cytokines into the media.
Buffy coats from anonymized, healthy human donors. CD19 microbeads (Miltenyi Cat. No. 130-050-301). TLR9 agonist, 1018 ISS, CpG-containing DNA oligonucleotide. Human interleukin (IL)-6 ELISA kit (Mabtech Cat. No. 3460-1H-20).
Following isolation of […] from buffy coats, human B cells were plated into 96 well plates at approximately 300,000 cells per well. Test compounds were serially diluted and added to the plates. Test compounds were typically assayed using a concentration range from about 0.01 μM to about 10 μM. Certain test compounds were further assayed in an expanded dilution series using a compound concentration range from about 0.001 μM to about 30 μM. Immediately after adding test compounds, the TLR9 agonist (1018 ISS, CpG-containing DNA oligonucleotide) was added to a final concentration of 1 μM. Cells were incubated for 48 hours at 37° C. A portion of the media supernatant was analyzed for the presence of IL-6 using ELISA kits. The amount of IL-6 produced is a reflection of the amount of TLR9-dependent receptor activity. The IC50 values (the concentration at which 50% of the TLR9-dependent receptor activity is reduced) were calculated based upon the TLR9-dependent receptor activity over a range of different test compound concentrations.

[1] abbreviates: IL-1 beta readout, read-out: Human TLR8 IC50 IL-1b.
Where [2] appears, read: TNF-alpha readout, read-out: Human TLR8 IC50 TNF-a.

SMILES strings stand for the structures. Like-named read-outs stand apart in the source and are kept apart here. Where only a bound is given, the exact number is not on record here.

Take `Cc1nnc(N2CCC(C(=O)NCCN3CCCCC3C)CC2)c2nn(-c3ccccc3)c(C)c12` (centres unmarked) [24x, 1-(3,4-dimethyl-2-phenyl-2H-pyrazolo[3,4-d]pyridazin-7-yl)-N-(2-(2-methylpiperidin-1-yl)ethyl)piperidine-4-carboxamide]: the results for the IC50 on human TLR8 (setting [1]), on human TLR8 (setting [2]) and at human TLR9 were > 10 µM, > 10 µM and 0.032 µM, respectively. The “inhibits TLR9-dependent responses (in words)” value on human TLR9 is “inhibit”.
In the case of `Cc1ccc(-n2nc3c(N4CCC(C(=O)NCCN5CCOCC5)CC4)nnc(C)c3c2C)cc1` [17x, 1-(3,4-dimethyl-2-(p-tolyl)-2H-pyrazolo[3,4-d]pyridazin-7-yl)-N-(2-morpholinoethyl)piperidine-4-carboxamide], the 50% inhibitory concentration (IC50) on human TLR8 (setting [2]) was ≥ 20 µM. On human TLR9, the half-maximal inhibitory concentration (IC50) was determined as 0.017 µM and the “inhibits TLR9-dependent responses (in words)” value is “inhibit”.
In the case of `Cc1ccc(-n2cc3cnnc(N4CCC(CCC(=O)NCCN(C)C)CC4)c3n2)cc1` [compound 61, N-(2-(dimethylamino)ethyl)-3-(1-(2-(p-tolyl)-2H-pyrazolo[3,4-d]pyridazin-7-yl)piperidin-4-yl)propanamide], the IC50 on human TLR8 (setting [2]) worked out at 4.85 µM; on human TLR9, 0.009 µM.
For `Cc1ccc(-n2nc3c(N4CCC(C(=O)NCCCN(C)C)CC4)nnc(C)c3c2-c2ccccc2)cc1` [compound 34, N-(3-(dimethylamino)propyl)-1-(4-methyl-3-phenyl-2-(p-tolyl)-2H-pyrazolo[3,4-d]pyridazin-7-yl)piperidine-4-carboxamide], in that order: ≥ 20 µM and 0.251 µM.
Consider `Cc1ccc(-n2nc3c(N4CCC(C(=O)N5CCOCC5)CC4)nnc(C)c3c2C)cc1` [2-3], for which the half-inhibitory concentration (IC50) on human TLR8 (setting [1]), on human TLR8 (setting [2]) and on human TLR9 was > 10 µM throughout.
With `Cc1ccc(-n2nc3c(N4CCC(C(=O)NCCNC(C)C)CC4)nnc(C)c3c2C)cc1` [compound 8, 1-(3,4-dimethyl-2-(p-tolyl)-2H-pyrazolo[3,4-d]pyridazin-7-yl)-N-(2-(isopropylamino)ethyl)piperidine-4-carboxamide], the results for the half-inhibitory concentration (IC50) at human TLR8 (setting [1]), on human TLR8 (setting [2]) and on human TLR9 were > 10 µM, > 10 µM and 0.308 µM, respectively.
For `CCN(CC)CCNC(=O)C1CCN(c2nnc(C)c3c(C)n(-c4ccc(C)cc4)nc23)CC1` [20x, N-(2-(diethylamino)ethyl)-1-(3,4-dimethyl-2-(p-tolyl)-2H-pyrazolo[3,4-d]pyridazin-7-yl)piperidine-4-carboxamide], the concentration for half-maximal inhibition (IC50) worked out at 5.04 µM on human TLR8 (setting [1]), 4.86 µM at human TLR8 (setting [2]) and 0.003 µM on human TLR9.
For the molecule `CCN(CC)C1CCN(C(=O)C2CCN(c3nncc4cn(-c5ccc(C)cc5)nc34)CC2)CC1` [compound 59, (4-(diethylamino)piperidin-1-yl)(1-(2-(p-tolyl)-2H-pyrazolo[3,4-d]pyridazin-7-yl)piperidin-4-yl)methanone], the IC50 was determined as 0.77 µM on human TLR8 (setting [2]) and 0.006 µM at human TLR9.
For `Cc1nnc(N2CCC(C(=O)NCCCN(C)C)CC2)c2nn(C(C)C)c(C)c12` [compound 27, N-(3-(dimethylamino)propyl)-1-(2-isopropyl-3,4-dimethyl-2H-pyrazolo[3,4-d]pyridazin-7-yl)piperidine-4-carboxamide], in that order: ≥ 20 µM and > 10 µM.
The corresponding values for `Cc1ccc(-n2nc3c(N4CCC(C(=O)N5CCC6(CNC6)C5)CC4)nnc(C)c3c2C)cc1` [compound 74, (1-(3,4-dimethyl-2-(p-tolyl)-2H-pyrazolo[3,4-d]pyridazin-7-yl)piperidin-4-yl)(2,6-diazaspiro[3.4]octan-6-yl)methanone] are ≥ 20 µM and 2.59 µM.
The corresponding values for `Cc1ccc(-n2nc3c(N4CCC(C(=O)NCCCCCCN(C)C)CC4)nnc(C)c3c2C)cc1` [compound 38, 1-(3,4-dimethyl-2-(p-tolyl)-2H-pyrazolo[3,4-d]pyridazin-7-yl)-N-(6-(dimethylamino)hexyl)piperidine-4-carboxamide] are ≥ 20 µM and 0.04 µM.
With `CNC(=O)C1CCN(c2nnc(C)c3c(C)n(-c4ccc(C)cc4)nc23)CC1` [2-2], the half-maximal inhibitory concentration (IC50) was ≥ 20 µM at human TLR8 (setting [2]) and 3.77 µM on human TLR9.
For `Cc1ccc(-c2nc3c(N4CCC(C(=O)NCCCN(C)C)CC4)cccc3n2C)cc1` [Compound No. 53, N-(3-(dimethylamino)propyl)-1-(1-methyl-2-(p-tolyl)-1H-benzo[d]imidazol-4-yl)piperidine-4-carboxamide], in that order: ≥ 20 µM and 2.23 µM.
